Values of other authors in publication PMC4433633, “A Heparan Sulfate-Binding Cell Penetrating Peptide for Tumor Targeting and Migration Inhibition” (BioMed Research International, 2015).

Conditions: ref [56]
Description: Although CPPs as noninvasive agents have promising biomedical potential for molecular delivery, they are mostly unfeasible for in vivo researches due to nonspecificity of their highly cationic characteristic such as TAT peptide. Due to high uptake rates in vitro and relatively low specificity in vivo of most CPPs, conventional CPPs would be designed for topical applications in CPP-based delivery (Table 1). […] Although TAT peptide (46–57) de ...

Sequence: SYGRKKRRQRRR [TAT peptide (46–57), multifunctional CPP […]]
- target specificity in vivo: low target specificity in vivo
